Assay results: patent US20190144368A1, “Compounds and compositions for biofilm prevention” (INHIBIO AS, priority 2016, published 2019)
“And” between values parts separate entries of the source, which are not always exact repeats. Identical values can stand only once.

Legend:
[1] = test system: E. coli 1242 and E. coli 1153; test: Biofilm formation in microtiter plates, comparison of 1,3-cyclohexanedione and menthone; type: cell-based, Escherichia coli; settings: two values, one per strain (E. coli 1242, E. coli 1153)
Experimental: (§1) All experiments were performed by using sterile 96-wells polystyrene microtiter plates (Nunc, Nuncleon, Roskilde, Denmark) under conditions promoting biofilm formation by the different bacterial genera. The Inhibio compound preparations of the invention; 1,3-cyclohexanedione, 1,4-cyclohexanedione, cyclopentanone, 5-ethylcyclohexane-1,3-dione and 5-methyl-1,3 cyclohexanedione 98% were solved directly in Tryptic Soy Broth (TSB) 1+1 or Liquid Microbiology Broth (LB) broth without NaCl (LB^wo/NaCl) to obtain the test concentrations, i.e. from 1 mg/ml to 10 mg/ml.
One Salmonella ser. Typhimurium (S. Typhimurium), two Salmonella ser. Agona (S. Agona) and two Escherichia coli (E. coli) isolates were used in these studies. The studies performed using 1,3-cyclohexanedione and 1,4-cyclohexanedione were done on Salmonella isolates only. The studies comparing Menthone to 1,3-cyclohexanedione were using two E. coli strains, E. coli 1242 and E. coli 1153, see FIG. 11. The Salmonella isolates were isolated from Norwegian feed factories except one S. Typhimurium strain which was a culture collection strain (ATCC 14028). The E. coli isolates were of animal origin. All strains were stored at −80° C. in BHI supplemented with 15% glycerine and were recovered on blood agar at 37.0±1.0° C. The bacterial cultures were then transferred into LB broth and incubated statically overnight at 37.0±1.0° C. to obtain an overnight working culture. […] After incubation, OD595 was measured before the plates were gently washed one time with 150 μl tap water. […] OD595 was measured in a microplate photometer (Multiscan EX) after the bound dye was dissolved using ethanol:acetone. For each strain, the result was calculated by subtracting the median OD595 of the three parallels of the control (test broth only) from the median OD595 of the three parallels of sample. Further, the averages of the Gram negative strains were calculated. Three independent experiments were performed and the average was evaluated.

[2] = test system: Gram positive bacteria (three Staphylococcus aureus strains); test: Biofilm formation in polystyrene microtiter plates (crystal violet, OD595), Gram positive bacteria; type: cell-based; settings: one day at 37 °C
Experimental: as §1
Three Staphylococcus aureus strains of animal origin were used in this study. All strains were stored at −80° C. in Brain Heart Infusion Broth (BHI) (Difco, BD, Franklin Lakes, N.J., USA) supplemented with 15% glycerine (Merck KGaA, Darmstadt, Germany) and were recovered on blood agar at 37.0±1.0° C. The bacterial cultures were then transferred into TSB and were incubated statically overnight at 37.0±1.0° C. to obtain an overnight working culture. A total of 2 μl of this suspension was transferred to each 96 wells of polystyrene microtiter plates (Nunc, Nuncleon, Roskilde, Denmark) containing 198 μl TSB 1+1 with dissolved Inhibio compounds in the following concentrations: 0 mg/ml, 1 mg/ml and 10 mg/ml for 1,3-cyclohexanedione; 0 mg/ml and 10 mg/ml for 1,4-cyclohexanedione; and 0 mg/ml, 1 mg/ml, 2 mg/ml and 10 mg/ml for 5-ethylcyclohexane-1,3-dione and 5-Methyl-1,3-cyclohexanedione in the total amount of broth. Three parallels of each strain were used and the microtiter plates were incubated statically for one day, at 37±1.0° C. After incubation, OD595 was measured in a microplate photometer (Multiscan EX; Thermo Fisher Scientific Inc, Waltham, Mass., USA) before the plates were gently washed three times with 290 μl tap water. The plates were dried in room temperature before addition of 220 μl 1% crystal violet (Sigma-Aldrich, St. Louis, Mo., USA). After 30 minutes incubation in room temperature, the plates were washed three times with tap water before the addition of 220 μl ethanol:acetone (70:30 w:w) to dissolve the bound dye. The plates were incubated for 10 minutes in room temperature before OD595 was measured after the bound dye was dissolved using ethanol:acetone. For each strain, the result was calculated by subtracting the median OD595 of the three parallels of the control (test broth only) from the median OD595 of the three parallels of sample. Further, the average result of all three Gram positive strains included in the study were calculated. Three independent experiments were performed and the average was evaluated.

[3] = test system: Gram negative bacteria (Salmonella isolates); test: Biofilm formation in polystyrene microtiter plates (crystal violet, OD595), Gram negative bacteria; type: cell-based, Salmonella ser. Typhimurium, Salmonella ser. Agona; settings: two days at 20 °C
Experimental: as §1
One Salmonella ser. Typhimurium (S. Typhimurium), two Salmonella ser. Agona (S. Agona) and two Escherichia coli (E. coli) isolates were used in these studies. The studies performed using 1,3-cyclohexanedione and 1,4-cyclohexanedione were done on Salmonella isolates only. The studies comparing Menthone to 1,3-cyclohexanedione were using two E. coli strains, E. coli 1242 and E. coli 1153, see FIG. 11. The Salmonella isolates were isolated from Norwegian feed factories except one S. Typhimurium strain which was a culture collection strain (ATCC 14028). The E. coli isolates were of animal origin. All strains were stored at −80° C. in BHI supplemented with 15% glycerine and were recovered on blood agar at 37.0±1.0° C. The bacterial cultures were then transferred into LB broth and incubated statically overnight at 37.0±1.0° C. to obtain an overnight working culture. A total of 30 μl of this suspension was transferred to each well in 96 wells polystyrene microtiter plates (Nunc, Nuncleon, Roskilde, Denmark) in triplets. The wells were containing 100 μl LB^wo/NaCl (bacto-tryptone 10 g/l, yeast extract 5 g/l) with 1,3-cyclohexanedione dissolved in concentration 0 mg/ml, 1 mg/ml and 10 mg/ml in the total amount of broth and 1,4-cyclohexanedione and cyclopentanone at 0 mg/ml and 10 mg/ml. The microtiter plates were incubated statically for two days, at 20±1.0° C. After incubation, OD595 was measured before the plates were gently washed one time with 150 μl tap water. The plates were dried in room temperature before addition of 140 μl 1% crystal violet (Sigma-Aldrich). After 30 minutes incubation in room temperature, the plates were washed three times with tap water before addition of 140 μl ethanol:acetone (70:30 w:w) and incubated for another 10 minutes in room temperature. OD595 was measured in a microplate photometer (Multiscan EX) after the bound dye was dissolved using ethanol:acetone. For each strain, the result was calculated by subtracting the median OD595 of the three parallels of the control (test broth only) from the median OD595 of the three parallels of sample. Further, the averages of the Gram negative strains were calculated. Three independent experiments were performed and the average was evaluated.

[4] = NMR of cyclohexane-1,3-dione in aqueous solution (keto-enol tautomerism); type: physicochemical; settings: NMR-data
Text: In one embodiment, the compounds of the composition are able to undergo keto-enol tautomerism. Particularly 1,3-cyclodions, such as 1,3-cyclohexanediones, particularly such diones wherein neither or maximum one substituents are present in the C-2 position, have been found favourable as they can undergo keto-enol tautomerism. NMR-data of cyclohexane-1,3-dione support that in aqueous solution this compound exists in a highly enolised form where electrons are delocalised between the C-1-oxygen/C-1, C-2 and C-3/C-3-oxygen thereby rendering the C-2 methylene protons relatively acidic. […] It is believed that the acidity of the C-2 protons affect the solubility of the compound, providing a higher solubility than e.g. similar 1,4-carbocyclic compounds.

With `O=C1CCCC(=O)C1` [1,3-cyclohexanedione] as the compound, how does the “decrease in biofilm formation” value ([1]; 1 mg/ml) read?
Its value is 46% and 70%.

What about the “decrease in biofilm formation” value ([1]; 10 mg/ml) of the same compound?
The value was 97% and 100%.

And the “decrease in biofilm formation, percentage of the control” value (from here on “decrease … percentage of the control”) ([2]; 1 mg/ml)?
The value was 74%.

And the “decrease … percentage of the control” value ([2]; 10 mg/ml)?
Its value is 98%.

And the “decrease … percentage of the control” value ([3]; 1 mg/ml)?
The value was 70%.

And the “decrease … percentage of the control” value ([3]; 10 mg/ml)?
The value was 87%.

And the stability of tautomers [4]?
The stability of tautomers was “stable at least over one day”.
